We go through 18 molecules from patent US20140120087A1, “TRIAZOLOPYRIDINES” (BAYER INTELLECTUAL PROPERTY GMBH, priority 2011, published 2014).

Usually IC50 stands for the point on the concentration scale where inhibition reaches its midpoint. A lower IC50 goes with higher potency.

The structures appear in SMILES notation.

Series [1] can be described thus: Hydrolytic stability assay at pH 2. The settings on record: buffer pH 2, 37° C., compounds of the invention. Format: physicochemical. The method, boiled down:
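Compound from a 10 mM DMSO stock was diluted in acetonitrile, added to pH 2 buffer and incubated at 37° C. HPLC injections were made at time zero and after 1, 2 and 24 hrs. Decay (%) was calculated from peak areas relative to the time-zero injection.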

Series [2] concerns the target T1, Mps-1 kinase (Homo sapiens, UniProt P33981).
T1 sequence (P33981 1-857): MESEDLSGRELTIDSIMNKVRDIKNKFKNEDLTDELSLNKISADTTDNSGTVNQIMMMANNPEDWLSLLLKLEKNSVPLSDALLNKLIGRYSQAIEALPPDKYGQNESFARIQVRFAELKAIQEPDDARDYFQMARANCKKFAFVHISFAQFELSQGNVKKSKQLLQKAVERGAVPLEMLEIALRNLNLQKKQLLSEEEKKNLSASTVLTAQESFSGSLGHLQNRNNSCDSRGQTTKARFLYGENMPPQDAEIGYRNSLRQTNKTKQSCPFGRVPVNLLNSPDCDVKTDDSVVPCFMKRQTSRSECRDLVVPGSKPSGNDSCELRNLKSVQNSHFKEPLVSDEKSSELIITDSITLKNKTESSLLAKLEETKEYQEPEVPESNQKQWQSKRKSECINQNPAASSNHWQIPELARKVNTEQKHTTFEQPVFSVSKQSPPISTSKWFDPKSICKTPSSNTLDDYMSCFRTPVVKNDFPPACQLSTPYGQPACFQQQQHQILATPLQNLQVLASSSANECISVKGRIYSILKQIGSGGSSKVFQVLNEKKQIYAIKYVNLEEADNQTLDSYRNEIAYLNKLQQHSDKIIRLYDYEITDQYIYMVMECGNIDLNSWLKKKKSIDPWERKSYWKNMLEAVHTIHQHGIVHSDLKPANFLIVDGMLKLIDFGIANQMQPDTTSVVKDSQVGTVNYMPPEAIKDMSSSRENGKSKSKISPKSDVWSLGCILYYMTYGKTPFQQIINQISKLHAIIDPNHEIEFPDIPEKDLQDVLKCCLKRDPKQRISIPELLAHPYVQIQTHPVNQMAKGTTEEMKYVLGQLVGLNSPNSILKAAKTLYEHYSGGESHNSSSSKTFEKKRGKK
As to the kind of experiment: Mps-1 kinase assay with 10 μM ATP (TR-FRET).

For series [3], the target named is T1, Mps-1 kinase. Description: Mps-1 kinase assay with 2 mM ATP (TR-FRET).

With `O=C(Cc1ccc(F)cc1)Nc1ccc(-c2ccc3nc(Nc4ccc(C(=O)NCCO)cc4OCC(F)(F)F)nn3c2)cc1` [Example 01.11, 4-{[6-(4-{[(4-fluorophenyl)acetyl]amino}phenyl)[1,2,4]triazolo[1,5-α]-pyridin-2-yl]amino}-N-(2-hydroxyethyl)-3-(2,2,2-trifluoroethoxy)benzamide], the “Hydrolysis at pH 2; Decay in % after 24 h” value (shortened to “Hydrolysis … in % after 24 h”) in series [1] is less than 10%. Besides, the IC50 against Mps-1 kinase [2] and against Mps-1 kinase [3] was not above 1 nM in each case.

In the case of `COc1cc(C(=O)NCC(C)(C)O)ccc1Nc1nc2ccc(-c3ccc(NC(=O)Cc4ccc(F)cc4)cc3)cn2n1` [Example 01.12, 4-{[6-(4-{[(4-fluorophenyl)acetyl]amino}phenyl)[1,2,4]triazolo[1,5-α]-pyridin-2-yl]amino}-N-(2-hydroxy-2-methylpropyl)-3-methoxybenzamide], in series [1], the “Hydrolysis … in % after 24 h” value is given as less than 10%. Also, the IC50 against Mps-1 kinase [2] and on Mps-1 kinase [3] was not above 1 nM each time.

On to `COc1cc(C(=O)NC(C)(C)C)ccc1Nc1nc2ccc(-c3ccc(NC(=O)Cc4ccc(F)cc4)cc3)cn2n1` [Example 01.5, N-tert-butyl-4-{[6-(4-{[(4-fluorophenyl)acetyl]amino}phenyl)[1,2,4]-triazolo[1,5-α]pyridin-2-yl]amino}-3-methoxybenzamide], for which the “Hydrolysis … in % after 24 h” value in series [1] was less than 10%. The IC50 against Mps-1 kinase [2] and at Mps-1 kinase [3] was not above 1 nM each time.

For `CCCOc1cc(C(=O)N(CC)CC)ccc1Nc1nc2ccc(-c3ccc(NC(=O)Cc4ccc(F)cc4)cc3)cn2n1` [Example 01.23, N,N-diethyl-4-{[6-(4-{[(4-fluorophenyl)acetyl]amino}phenyl)[1,2,4]triazolo-[1,5-α]pyridin-2-yl]amino}-3-propoxybenzamide], in series [1], the “Hydrolysis … in % after 24 h” value was less than 10%. In addition, the results for the concentration for half-maximal inhibition (IC50) against Mps-1 kinase [2] and against Mps-1 kinase [3] were not above 1 nM and 1.1 nM, respectively.

Take `CC(C)(O)CNC(=O)c1ccc(Nc2nc3ccc(-c4ccc(NC(=O)Cc5ccc(F)cc5)cc4)cn3n2)c(OCC(F)(F)F)c1` [Example 01.29, 4-{[6-(4-{[(4-fluorophenyl)acetyl]amino}phenyl)[1,2,4]triazolo[1,5-α]-pyridin-2-yl]amino}-N-(2-hydroxy-2-methylpropyl)-3-(2,2,2-trifluoro-ethoxy)benzamide]: the “Hydrolysis … in % after 24 h” value in series [1] is listed as less than 10%. The concentration for half-maximal inhibition (IC50) at Mps-1 kinase [2] and at Mps-1 kinase [3] was not above 1 nM throughout.

In the case of `O=C(NCCO)c1ccc(Nc2nc3ccc(-c4ccc(C(=O)NCC5CC5)cc4)cn3n2)c(OCC(F)(F)F)c1` [Example 06.4, 4-[(6-{4-[(cyclopropylmethyl)carbamoyl]phenyl}[1,2,4]triazolo[1,5-α]-pyridin-2-yl)amino]-N-(2-hydroxyethyl)-3-(2,2,2-trifluoroethoxy)benzamide], in series [1], the “Hydrolysis … in % after 24 h” value was less than 10%. For the same molecule, the IC50 against Mps-1 kinase [2] was not above 1 nM; against Mps-1 kinase [3], 11 nM.

Consider `CCOc1cc(C(=O)N(CC)CCOC)ccc1Nc1nc2ccc(-c3ccc(NC(=O)Cc4ccc(F)cc4)cc3)cn2n1` [Example 01.18, 3-ethoxy-N-ethyl-4-{[6-(4-{[(4-fluorophenyl)acetyl]amino}phenyl)[1,2,4]-triazolo[1,5-α]pyridin-2-yl]amino}-N-(2-methoxyethyl)benzamide], for which the “Hydrolysis … in % after 24 h” value in series [1] is recorded as less than 10%. For the same molecule, the IC50 on Mps-1 kinase [2] and against Mps-1 kinase [3] was not above 1 nM in each case.

Take `CCNC(=O)c1ccc(Nc2nc3ccc(-c4ccc(C(=O)NCC5CC5)cc4)cn3n2)c(OCC(F)(F)F)c1` [Example 06.5, 4-[(6-{4-[(cyclopropylmethyl)carbamoyl]phenyl}[1,2,4]triazolo[1,5-α]-pyridin-2-yl)amino]-N-ethyl-3-(2,2,2-trifluoroethoxy)benzamide]: in series [1], the “Hydrolysis … in % after 24 h” value is reported as less than 10%. Moreover, the IC50 was not above 1 nM at Mps-1 kinase [2] and 19 nM against Mps-1 kinase [3].

`CCOc1cc(C(=O)N(CC)CCOC)ccc1Nc1nc2ccc(-c3ccc(C(=O)NCC4CC4)cc3)cn2n1` [Example 06.2, 4-[(6-{4-[(cyclopropylmethyl)carbamoyl]phenyl}[1,2,4]triazolo[1,5-α]-pyridin-2-yl)amino]-3-ethoxy-N-ethyl-N-(2-methoxyethyl)benzamide]: the “Hydrolysis … in % after 24 h” value in series [1] is less than 10%. In addition, the IC50 against Mps-1 kinase [2] stood at 1.4 nM; against Mps-1 kinase [3] it was 26 nM.

Consider `CCOc1cc(C(=O)NCC(C)(C)O)ccc1Nc1nc2ccc(-c3ccc(C(=O)NCc4ccc(F)cc4)cc3)cn2n1` [Example 02.7, 3-ethoxy-4-[(6-{4-[(4-fluorobenzyl)carbamoyl]phenyl}[1,2,4]triazolo[1,5-α]pyridin-2-yl)amino]-N-(2-hydroxy-2-methylpropyl)benzamide], for which, in series [1], the “Hydrolysis … in % after 24 h” value is less than 10%. For the same molecule, the IC50 against Mps-1 kinase [2] and at Mps-1 kinase [3] was not above 1 nM in each case.

As to `COc1cc(C(=O)NCCO)ccc1Nc1nc2ccc(-c3ccc(C(=O)NCc4ccc(F)cc4)cc3)cn2n1` [Example 02.1, 4-[(6-{4-[(4-fluorobenzyl)carbamoyl]phenyl}[1,2,4]triazolo[1,5-α]pyridin-2-yl)amino]-N-(2-hydroxyethyl)-3-methoxybenzamide], the “Hydrolysis … in % after 24 h” value in series [1] is on record as less than 10%. Besides, the IC50 was not above 1 nM at Mps-1 kinase [2] and 1.1 nM at Mps-1 kinase [3].

For the molecule `CCOc1cc(C(=O)NC(C)(C)C)ccc1Nc1nc2ccc(-c3ccc(C(=O)NCc4ccc(F)cc4)cc3)cn2n1` [Example 02.21, N-tert-butyl-3-ethoxy-4-[(6-{4-[(4-fluorobenzyl)carbamoyl]phenyl}[1,2,4]-triazolo[1,5-α]pyridin-2-yl)amino]benzamide], the “Hydrolysis … in % after 24 h” value in series [1] is given as less than 10%. Further, the IC50 against Mps-1 kinase [2] was not above 1 nM; against Mps-1 kinase [3], 2.4 nM.

Consider `CCOc1cc(C(=O)N(CC)CC)ccc1Nc1nc2ccc(-c3ccc(NC(=O)Cc4ccc(F)cc4)cc3)cn2n1` [Example 01.10, 3-ethoxy-N,N-diethyl-4-{[6-(4-{[(4-fluorophenyl)acetyl]amino}phenyl)-[1,2,4]triazolo[1,5-α]pyridin-2-yl]amino}benzamide], for which the “Hydrolysis … in % after 24 h” value in series [1] is listed as less than 10%. Besides, the IC50 against Mps-1 kinase [2] and against Mps-1 kinase [3] was not above 1 nM each time.

As for `CCOc1cc(C(=O)NCCO)ccc1Nc1nc2ccc(-c3ccc(C(=O)NCC4CC4)cc3)cn2n1` [Example 06.3, 4-[(6-{4-[(cyclopropylmethyl)carbamoyl]phenyl}[1,2,4]triazolo[1,5-α]-pyridin-2-yl)amino]-3-ethoxy-N-(2-hydroxyethyl)benzamide], the “Hydrolysis … in % after 24 h” value in series [1] is on record as less than 10%. Besides, the half-maximal inhibitory concentration (IC50) is not above 1 nM on Mps-1 kinase [2] and 21 nM at Mps-1 kinase [3].

Regarding `CCN(CC)C(=O)c1ccc(Nc2nc3ccc(-c4ccc(NC(=O)Cc5ccc(F)cc5)cc4)cn3n2)c(OC(C)C)c1` [Example 01.25, N,N-diethyl-4-{[6-(4-{[(4-fluorophenyl)acetyl]amino}phenyl)[1,2,4]triazolo-[1,5-α]pyridin-2-yl]amino}-3-isopropoxybenzamide], the “Hydrolysis … in % after 24 h” value in series [1] is less than 10%. Also, the IC50 against Mps-1 kinase [2] is not above 1 nM; on Mps-1 kinase [3] it was 1.3 nM.

Turning to `CCOc1cc(C(=O)NC(C)(C)CO)ccc1Nc1nc2ccc(-c3ccc(C(=O)NCc4ccc(F)cc4)cc3)cn2n1` [Example 02.3, 3-ethoxy-4-[(6-{4-[(4-fluorobenzyl)carbamoyl]phenyl}[1,2,4]triazolo[1,5-α]pyridin-2-yl)amino]-N-(1-hydroxy-2-methylpropan-2-yl)benzamide], the “Hydrolysis … in % after 24 h” value in series [1] is listed as less than 10%. Also, the IC50 at Mps-1 kinase [2] and against Mps-1 kinase [3] was not above 1 nM each time.

For `COc1cc(C(=O)NC(C)(C)C)ccc1Nc1nc2ccc(-c3ccc(C(=O)NCc4ccc(F)cc4)cc3)cn2n1` [Example 02.14, N-tert-butyl-4-[(6-{4-[(4-fluorobenzyl)carbamoyl]phenyl}[1,2,4]triazolo-[1,5-α]pyridin-2-yl)amino]-3-methoxybenzamide], the “Hydrolysis … in % after 24 h” value in series [1] was less than 10%. Besides, the concentration for half-maximal inhibition (IC50) on Mps-1 kinase [2] is not above 1 nM; on Mps-1 kinase [3], 2.4 nM.

Turning to `COc1cc(C(=O)NC(C)(C)CO)ccc1Nc1nc2ccc(-c3ccc(C(=O)NCc4ccc(F)cc4)c(C)c3)cn2n1` [Example 04.1, N-(4-fluorobenzyl)-4-[2-({4-[(1-hydroxy-2-methylpropan-2-yl)carbamoyl]-2-methoxyphenyl}amino)[1,2,4]triazolo[1,5-α]pyridin-6-yl]-2-methylbenz-amide], the “Hydrolysis … in % after 24 h” value in series [1] is recorded as less than 10%. The IC50 at Mps-1 kinase [2] was not above 1 nM; at Mps-1 kinase [3] it was 16 nM.
